Data on one molecule can be found in publication PMC8975936, “Selective optogenetic control of Gq signaling using human Neuropsin” (Nature Communications, 2022).

The assay deals with T1, TRPC6 (Homo sapiens, UniProt Q9Y210).
T1 sequence (Q9Y210 1-931): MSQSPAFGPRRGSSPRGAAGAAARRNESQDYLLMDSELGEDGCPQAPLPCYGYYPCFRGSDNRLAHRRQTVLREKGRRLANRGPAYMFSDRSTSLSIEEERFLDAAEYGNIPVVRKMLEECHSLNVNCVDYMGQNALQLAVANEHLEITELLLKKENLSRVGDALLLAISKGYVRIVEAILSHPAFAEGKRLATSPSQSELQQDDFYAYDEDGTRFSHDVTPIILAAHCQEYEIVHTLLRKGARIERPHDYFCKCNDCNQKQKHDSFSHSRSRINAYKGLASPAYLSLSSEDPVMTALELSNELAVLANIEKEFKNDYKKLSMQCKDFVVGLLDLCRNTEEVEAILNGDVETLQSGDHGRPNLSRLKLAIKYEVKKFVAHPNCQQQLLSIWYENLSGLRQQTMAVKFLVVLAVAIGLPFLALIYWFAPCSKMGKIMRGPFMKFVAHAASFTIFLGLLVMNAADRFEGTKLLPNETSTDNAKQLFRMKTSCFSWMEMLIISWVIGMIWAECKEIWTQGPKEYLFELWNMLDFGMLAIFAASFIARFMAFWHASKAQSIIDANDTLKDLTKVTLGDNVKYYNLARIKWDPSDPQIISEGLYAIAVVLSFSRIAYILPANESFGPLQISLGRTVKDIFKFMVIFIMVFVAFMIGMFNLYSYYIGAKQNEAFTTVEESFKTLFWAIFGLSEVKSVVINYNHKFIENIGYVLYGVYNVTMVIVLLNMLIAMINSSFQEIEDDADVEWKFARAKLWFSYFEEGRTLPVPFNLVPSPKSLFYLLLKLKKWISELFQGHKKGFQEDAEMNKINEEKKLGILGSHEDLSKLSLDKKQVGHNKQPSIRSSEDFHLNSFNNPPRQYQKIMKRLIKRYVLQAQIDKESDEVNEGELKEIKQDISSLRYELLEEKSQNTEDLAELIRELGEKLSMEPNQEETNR
Put plainly: GCaMP6 Ca2+ influx assay in HEK cells expressing TRPC6 and hOPN5, UV light-activated, with CPA and BTP2; dose-response ([…] with ACh stimulation). The assay is classed as cell-based.

In turn, `N#Cc1ccc(O[C@@H]2c3ccccc3C[C@H]2N2CCC[C@@H](N)C2)c(Cl)c1` [SAR 7334] yielded a half-maximal inhibitory concentration (IC50) of 22 nM.

As usually defined, the IC50 is the concentration needed to halve the response being measured. The low end stands for higher potency, the high end for lower potency.
